# From US20250381165A1, “Method of Use for Benzofuran Compounds” (Tampa Bay Research Institute, Inc., priority 2024, published 2025)
# Tests used:
# Assay type in all cases: cell-based, murine
# [1] = molecular target: T1, H-2Kb/SIINFEKL complex on DC2.4 (Mus musculus, UniProt P01901); assay: BFA decay experiment (SIINFEKL off-rate) on DC2.4; settings: 24 h pre-treatment, 1 h 30 nM SIINFEKL
# T1 construct: DC2.4 are a C57Bl/6 lineage murine cell line and as such they express MHC class I H-2Kb and H-2Db; endogenous in cells; host or cells: DC2.4 (murine dendritic cell line, from Dr. Kenneth Rock)
# T1 sequence (P01901 22-369): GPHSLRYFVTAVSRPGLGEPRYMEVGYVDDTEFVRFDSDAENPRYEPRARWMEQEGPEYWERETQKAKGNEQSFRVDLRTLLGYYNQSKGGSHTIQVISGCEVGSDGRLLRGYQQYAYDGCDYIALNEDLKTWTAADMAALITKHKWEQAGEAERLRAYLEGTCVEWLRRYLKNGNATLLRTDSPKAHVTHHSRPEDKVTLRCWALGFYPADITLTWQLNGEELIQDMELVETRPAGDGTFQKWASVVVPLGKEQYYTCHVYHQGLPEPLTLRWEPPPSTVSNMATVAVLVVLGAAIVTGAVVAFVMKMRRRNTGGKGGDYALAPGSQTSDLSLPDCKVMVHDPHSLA
# T1 sequence (P01887 21-119 partner): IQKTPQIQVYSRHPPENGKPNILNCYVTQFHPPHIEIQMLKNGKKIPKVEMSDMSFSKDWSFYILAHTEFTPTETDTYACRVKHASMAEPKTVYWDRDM
# [2] = tested on: E.G7-OVA cells (B3Z activation); assay: B3Z activation by E.G7-OVA cells
# Procedure: Activation of B3Z T cell hybridoma cells was assessed following their exposure to various MHC class I H-2K^b positive cell lines presenting the SIINFEKL peptide. To stimulate β-gal production in the B3Z, the H-2Kb murine cell lines, DC2.4 and E.G7-OVA were plated at a density of 2.5 or 5×10^4 cells/well (100 μL/well in 96 well plates) and cultured overnight at 37° C. in an atmosphere containing 5% CO2 and 95% humidity. The cells were washed with DPBS and then treated for 1-24 h with the indicated concentrations of BzFβ suspended in complete media. Vehicle controls were always included. Cells being examined for the uptake and processing of soluble OVA were co-treated with BzFβ and 0.5 mg/mL grade V chicken ovalbumin for 6-24 h, and then washed and cocultured with B3Z as indicated.
# Following the pretreatment with BzFβ, the media was removed from adherent cells (DC2.4 or B16F10) or was removed following pelleting of nonadherent cells in the plate. The cells were then pulsed with various concentrations of SIINFEKL peptide (typically 0.5 nM was used) for the indicated lengths of time (typically 1 h). The cells were washed and then 100 μL of complete DMEM containing 5×10^4 B3Z cells was added. […] The absorbance at 560 nm (700 nm for background) was intermittently monitored using a BioTek Synergy HTX multimode microplate reader (Winooski, VT) to detect β-gal activity. […]
# [3] = molecular target: T2, MHC class I/SIINFEKL complex on IMG cells (Mus musculus, UniProt P01901); assay: SIINFEKL binding to IMG cells, flow cytometry with 25-D1.16 antibody; settings: 25 μg/mL BzFβ 0-4 h
# T2 construct: host or cells: IMG cell line
# T2 sequence (P01901 22-369): as the sequence (P01901 22-369) above
# T2 sequence (P01887 21-119 partner): as the sequence (P01887 21-119 partner) above
# Procedure: By using an MHC class I H-2K^b specific antibody, a relative comparison of the surface MHC class I was measured before and after BzFβ treatment of DC2.4 and IMG cells. These cells were treated with 25 μg/mL BzFβ for 0-4 h. Cells were centrifuged and washed using cold FACS buffer (DPBS with 5% FBS, 2 mM EDTA, 0.1% sodium azide). Cells were blocked with Fc block (bioLegend™; cat. no. 101320) for 10 min to 15 min to inhibit non-specific binding, followed by staining with fluorophore-conjugated antibodies; one set of cells was stained with the PE-labeled MHC/SIINFEKL specific antibody (clone 25-D1.16, Invitrogen™, Thermo Fisher Scientific Inc., Waltham, MA; cat. no. 12-5743-82), and the other set was stained with the PE-labeled MHC class I H-2Kb specific antibody (AF6-88.5.5.3,Invitrogen™, Thermo Fisher Scientific Inc., Waltham, MA; cat. no. 12-5958-82) […], for 30 min at 4° C. After washing, the cells were subjected to flow cytometric analysis with the Attune NxT Flow Cytometer (Invitrogen). Cells were gated based on live single-cell populations and positives were assessed using isotype controls and fluor-minus-one analysis when needed. Data were analyzed using the Attune NxT software or FlowJo versions 10.7 and 10.8.
structure (smiles),measurement,setting,value
"O=C(O)/C=C/c1ccc2occc2c1 [BzFβ, (2E)-3-(1-benzofuran-5-yl)prop-2-enoic acid]",decay rate of SIINFEKL / stability of H-2Kb/SIINFEKL complex,[1],did not affect the decay rate of SIINFEKL
same,ability of E.G7-OVA cells to activate B3Z,[2]; 0-100 μg/mL BzFβ,dose-dependently reduced
same,lowest dose with significant effect,"[2]; E.G7-OVA, B3Z assay",6.25 µg/mL
same,binding of SIINFEKL to surface MHC class I,[3],able to enhance the binding of SIINFEKL
